From DBAASP come the findings set out here.

The MIC is the smallest concentration in the dilution series that meets the test's criterion for growth inhibition. Low readings indicate inhibition by little substance, high ones a need for much substance.

Assay in all cases: ≥ marks a high value that may be exact or a test limit, other limits are often not marked, values filed in µg/mL are converted to µM
In test [1] the test system is Acinetobacter baumannii ATCC 19606.
The test system of test [2] is Bacillus subtilis ATCC 23857.
Test [3] concerns Enterococcus faecalis ATCC 29212.
Test [4] concerns Escherichia coli ATCC 25922.
Test [5] relates to Klebsiella pneumoniae ATCC 700603.
Test [6] relates to Pseudomonas aeruginosa ATCC 27853.
For test [7], the system named is Staphylococcus aureus ATCC 25923.
Test [8] deals with Staphylococcus epidermidis ATCC 12228.
Test [9] concerns Bacillus subtilis 168.
Test [10] relates to Escherichia coli B.
Test [11] concerns Pseudomonas aeruginosa.
In test [12] the test system is Staphylococcus aureus.
The test system of test [13] is Pseudomonas aeruginosa ATCC 9027.
The test system of test [14] is Klebsiella pneumoniae ATCC 13883.
Test [15] deals with Pseudomonas aeruginosa PAO1.
The subject of test [16] is Salmonella enterica subsp. enterica serovar Typhimurium ATCC 14028.

Converted amounts (≈) assume the structure as drawn. “And” between values parts separate entries of the source, which are not always exact repeats. Equal values may be shown once. Some results are limits rather than exact numbers.

With `C[C@@H](O)[C@H](NC(=O)[C@H](CCCCN)NC(=O)[C@H](Cc1c[nH]c2ccccc12)NC(=O)[C@H](CCCN=C(N)N)NC(=O)[C@H](CCCCN)NC(=O)[C@H](Cc1ccccc1)NC(=O)[C@H](Cc1ccccc1)NC(=O)CN)C(=O)N[C@@H](Cc1ccccc1)C(=O)N[C@@H](Cc1ccccc1)C(N)=O` [GFFKRWKTFF], the MIC in [1] came to 64 µM (≈ 87.2 µg/mL); in [2], 16 µM (≈ 21.8 µg/mL); in test [3], 64 µM (≈ 87.2 µg/mL); in [4], 16 µM (≈ 21.8 µg/mL); in test [5], 32 µM (≈ 43.6 µg/mL); in [6], 8 µM (≈ 10.9 µg/mL). The figures for the MIC in test [7] and in [8] were 16 µM (≈ 21.8 µg/mL) and 4 µM (≈ 5.45 µg/mL), respectively.

As to `CC[C@H](C)[C@H](NC(=O)CNC(=O)[C@H](C)NC(=O)[C@@H](NC(=O)[C@@H](NC(=O)CN)[C@@H](C)CC)[C@@H](C)CC)C(=O)NCC(=O)N[C@H](C(=O)N[C@@H](CCCCN)C(=O)N[C@H](C(=O)N[C@@H](CCCCN)C(=O)N[C@@H](CCCCN)C(N)=O)[C@@H](C)CC)[C@@H](C)CC` [GIIAGIGIKIKK], the results for the MIC in test [2] and in test [4] were at least 128 µM and 64 µM (≈ 77.4 µg/mL), respectively.

Consider `CC[C@H](C)[C@H](NC(=O)CN)C(=O)N[C@H](C(=O)N[C@@H](C)C(=O)NCC(=O)N[C@H](C(=O)N[C@H](C(=O)N[C@H](C(=O)N[C@@H](CCCCN)C(=O)N[C@@H](C)C(=O)N[C@@H](CCCCN)C(=O)N[C@@H](CCCCN)C(N)=O)[C@@H](C)CC)[C@@H](C)CC)[C@@H](C)CC)[C@@H](C)CC` [GIIAGIIIKAKK], for which the results for the MIC in test [2] and in [4] were at least 64 µM and 128 µM (≈ 157 µg/mL), respectively.

As to `CC[C@H](C)[C@H](NC(=O)[C@H](CC(C)C)NC(=O)[C@H](Cc1cnc[nH]1)NC(=O)CNC(=O)[C@H](CC(C)C)NC(=O)[C@@H](NC(=O)[C@H](CCCCN)NC(=O)[C@@H]1CCCN1C(=O)[C@H](Cc1c[nH]c2ccccc12)NC(=O)[C@H](CCSC)NC(=O)CN)[C@@H](C)CC)C(=O)N[C@@H](CCCN=C(N)N)C(N)=O` [GMWPKILGHLIR], the MIC in test [9] was 3 µM (≈ 4.26 µg/mL); in [10] it was at least 33.3 µM; in [11], above 100 µM; in test [12] it was 75 µM (≈ 106 µg/mL).

For the compound `CC[C@H](C)[C@H](NC(=O)[C@H](CCCCN)NC(=O)[C@H](CCCCN)NC(=O)[C@H](C)NC(=O)[C@@H](NC(=O)[C@H](C)NC(=O)[C@H](C)NC(=O)[C@H](CC(C)C)NC(=O)[C@H](C)NC(=O)[C@H](CCCCN)NC(=O)[C@H](CC(C)C)NC(=O)[C@H](CC(N)=O)NC(=O)CN)C(C)C)C(=O)N[C@@H](CC(C)C)C(N)=O` [GNLKALAAVAKKIL], the MIC in test [2] is 8 µM (≈ 11.3 µg/mL); in [4], 64 µM (≈ 90.2 µg/mL); in test [5] it was 128 µM (≈ 180 µg/mL); in [13], 64 µM (≈ 90.2 µg/mL); in test [7], above 128 µM.

`CC[C@H](C)[C@H](NC(=O)[C@H](Cc1cnc[nH]1)NC(=O)[C@H](CCCCN)NC(=O)[C@H](CC(C)C)NC(=O)[C@H](CC(C)C)NC(=O)[C@H](CO)NC(=O)[C@H](CCSC)NC(=O)[C@H](Cc1c[nH]c2ccccc12)NC(=O)[C@H](CCCCN)NC(=O)[C@@H](N)Cc1cnc[nH]1)C(=O)N[C@@H](CC(C)C)C(=O)N[C@@H](CCCCN)C(N)=O` [HKWMSLLKHILK]: the MIC amounted to 1.5 µM (≈ 2.3 µg/mL) in [9], 3.5 µM (≈ 5.37 µg/mL) in [10], 100 µM (≈ 153 µg/mL) in test [11] and 38.3 µM (≈ 58.7 µg/mL) in test [12].

As for `CC[C@H](C)[C@H](NC(=O)[C@H](CCCCN)NC(=O)[C@H](CCCCN)NC(=O)[C@H](C)NC(=O)[C@@H](NC(=O)[C@H](C)NC(=O)[C@H](CC(C)C)NC(=O)[C@H](CC(C)C)NC(=O)[C@H](C)NC(=O)[C@H](CCCCN)NC(=O)[C@H](CC(C)C)NC(=O)[C@H](CC(N)=O)NC(=O)[C@@H](N)CCCCN)C(C)C)C(=O)N[C@@H](CC(C)C)C(N)=O` [KNLKALLAVAKKIL], the MIC in [2] was 8 µM (≈ 12.2 µg/mL); in test [4], 8 µM (≈ 12.2 µg/mL); in test [5] it was 16 µM (≈ 24.4 µg/mL); in test [13], 8 µM (≈ 12.2 µg/mL); in test [7], 64 µM (≈ 97.4 µg/mL).

Take `CC[C@H](C)[C@H](NC(=O)[C@H](CCCCN)NC(=O)[C@H](CCCCN)NC(=O)[C@H](C)NC(=O)[C@@H](NC(=O)[C@H](C)NC(=O)CNC(=O)[C@H](CC(C)C)NC(=O)[C@H](C)NC(=O)[C@H](CCCCN)NC(=O)[C@H](CC(C)C)NC(=O)[C@H](CC(N)=O)NC(=O)[C@@H](N)CC(C)C)C(C)C)C(=O)N[C@@H](CC(C)C)C(N)=O` [LNLKALGAVAKKIL]: the MIC in test [2] is at least 32 µM; in test [4] it was 32 µM (≈ 46.4 µg/mL); in [5], 64 µM (≈ 92.9 µg/mL); in test [13], 32 µM (≈ 46.4 µg/mL); in test [7], 128 µM (≈ 186 µg/mL).

Regarding `CSCC[C@H](NC(=O)[C@H](Cc1cnc[nH]1)NC(=O)[C@H](C)NC(=O)[C@H](CCSC)NC(=O)[C@@H](NC(=O)[C@H](CCCCN)NC(=O)[C@@H]1CCCN1C(=O)[C@@H](N)CC(C)C)C(C)C)C(=O)N[C@@H](CCCCN)C(N)=O` [LPKVMAHMK], the MIC in [9] was at least 100 µM; in test [10], at least 100 µM; in test [11], 100 µM (≈ 105 µg/mL); in [12] it was 100 µM (≈ 105 µg/mL).

On to `CSCC[C@H](NC(=O)[C@H](Cc1cnc[nH]1)NC(=O)[C@H](C)NC(=O)[C@H](CCSC)NC(=O)[C@@H](NC(=O)[C@H](CCCCN)NC(=O)[C@@H]1CCCN1)C(C)C)C(=O)N[C@@H](CCCCN)C(N)=O` [PKVMAHMK], for which the MIC in test [9] and in [10] was at least 100 µM in each case.

Turning to `CC(C)C[C@H](NC(=O)[C@H](C)NC(=O)[C@H](CCCN=C(N)N)NC(=O)[C@H](CCCN=C(N)N)NC(=O)[C@H](Cc1ccccc1)NC(=O)[C@H](C)NC(=O)[C@H](Cc1c[nH]c2ccccc12)NC(=O)CNC(=O)[C@H](CCCN=C(N)N)NC(=O)[C@@H](N)CCCN=C(N)N)C(=O)N[C@@H](C)C(=O)N[C@@H](Cc1ccc(O)cc1)C(=O)NCC(=O)N[C@@H](CCCN=C(N)N)C(=O)N[C@@H](CCCN=C(N)N)C(N)=O` [RRGWAFRRALAYGRR], the MIC in test [1] is above 30 µM; in [4], 22.2 µM and 30 µM; in test [14], 30 µM (≈ 56.7 µg/mL); in test [15], above 30 µM; in test [16] it was 14.8 µM and 30 µM; in test [7], above 30 µM.

On to `CC[C@H](C)[C@H](NC(=O)[C@H](CCCCN)NC(=O)[C@H](CCCCN)NC(=O)[C@H](Cc1c[nH]c2ccccc12)NC(=O)[C@H](CC(N)=O)NC(=O)[C@@H](N)C(C)C)C(=O)N[C@@H](CC(C)C)C(=O)NCC(=O)N[C@@H](CCCCN)C(=O)N[C@H](C(=O)N[C@H](C(=O)N[C@@H](CCCCN)C(=O)N[C@H](C(=O)N[C@H](C(=O)N[C@@H](CCCCN)C(=O)O)C(C)C)C(C)C)[C@@H](C)CC)[C@@H](C)CC` [VNWKKILGKIIKVVK], for which the minimal inhibitory concentration (MIC) in [9] is 1.2 µM (≈ 2.12 µg/mL); in test [10], 3.5 µM (≈ 6.18 µg/mL); in test [11], 40 µM (≈ 70.7 µg/mL); in test [12], 40 µM (≈ 70.7 µg/mL).

As to `CC[C@H](C)[C@H](NC(=O)[C@H](CCCCN)NC(=O)[C@H](CCCCN)NC(=O)[C@H](Cc1c[nH]c2ccccc12)NC(=O)[C@H](CC(N)=O)NC(=O)[C@@H](N)C(C)C)C(=O)N[C@@H](CC(C)C)C(=O)N[C@@H](CCCCN)C(=O)N[C@@H](CCCCN)C(=O)N[C@H](C(=O)N[C@H](C(=O)N[C@@H](CCCCN)C(=O)N[C@H](C(=O)N[C@@H](C)C(=O)N[C@@H](CCCCN)C(N)=O)C(C)C)[C@@H](C)CC)[C@@H](C)CC` [VNWKKILKKIIKVAK], the MIC amounted to 0.7 µM (≈ 1.27 µg/mL) in test [9], 0.7 µM (≈ 1.27 µg/mL) in [10], 26.1 µM (≈ 47.2 µg/mL) in test [11] and 15.6 µM (≈ 28.2 µg/mL) in test [12].
